Assay results reported in patent publication US7750017B2, “Heterocycles” (Bayer Schering Pharma Aktiengesellschaft, priority 2004, dated 2010).
Counter-ions that a name gives are not always drawn.

Tests used:
[1] = test system: A431 cells [human epidermoid carcinoma, overexpressing HER1 (EGFR, ErbB1)]; assay: In vitro tumor cell proliferation assay (Cell Titer-Glo luminescent cell viability), A431 cells; type: cell-based; conditions: A-431, 72 h, 72 hours of drug exposure, Cell Titer-Glo readout, read-out: IC50, anti-proliferative activity in A431 cells
Text: (§1) The utility of the compounds of the present invention can be illustrated, for example, by their activity in vitro in the in vitro tumor cell proliferation assay described below. The link between activity in tumor cell proliferation assays in vitro and anti-tumor activity in the clinical setting has been very well established in the art.
(§2) The following assay is one of the methods by which compound activity relating to treatment of the disorders identified herein can be determined.
(§3) The tumor cell proliferation assay used to test the compounds of the present invention involves a readout called Cell Titer-Glow® Luminescent Cell Viability Assay developed by Promega® (Cunningham, B A “A Growing Issue: Cell Proliferation Assays, Modern kits ease quantification of cell growth” The Scientist 2001, 15(13), 26, and Crouch, S P et al., “The use of ATP bioluminescence as a measure of cell proliferation and cytotoxicity” Journal of Immunological Methods 1993, 160, 81-88), that measures inhibition of cell proliferation. Generation of a luminescent signal corresponds to the amount of ATP present, which is directly proportional to the number of metabolically active (proliferating) cells.
(§4) A431 cells [human epidermoid carcinoma, ATCC # […], overexpressing HER1 (EGFR, ErbB1)] and BT474 [human breast carcinoma, ATCC # CRL-1555, overexpressing HER2 (ErbB2)] were plated at a density of 2.5×10^3 cells/well in 96 well black-clear bottom tissue culture plates in RPMI media with 10% Fetal Bovine Serum and incubated at 37° C. Twenty-four hours later, test compounds are added at a final concentration range from as high 100 μm to as low 64 pM depend on the activities of the tested compounds in serial dilutions at a final DMSO concentration of 0.1%. Cells were incubated for 72 hours at 37° C. in complete growth media after addition of the test compound. After 72 hours of drug exposure, the plates were equilibrated to room temperature for approximately 30 min. Then, using a Promega Cell Titer Glo Luminescent® assay kit, lysis buffer containing 100 microliters of the enzyme luciferase and its substrate, luciferin mixture, was added to each well. The plates were mixed for 2 min on orbital shaker to ensure cell lysis and incubated for 10 min at room temperature to stabilize luminescence signal. The samples were read on VICTOR 2 using Luminescence protocol, and analyzed with Analyze5 software to generate IC50 values.

[2] = test system: BT474 [human breast carcinoma, overexpressing HER2 (ErbB2)]; assay: In vitro tumor cell proliferation assay (Cell Titer-Glo luminescent cell viability), BT474 cells; type: cell-based; conditions: BT-474, 72 h, 72 hours of drug exposure, Cell Titer-Glo readout, read-out: IC50, anti-proliferative activity in BT474 cells
Text: as §1, §2, §3, §4

Compound	IC50 [1] [µM]	IC50 [2] [µM]
OCC(O)c1ccc2c(c1)sc1ncnc(Nc3ccc(OCc4cccc(F)c4)c(Cl)c3)c12 (racemic) [Example 25, 1-[4-({3-chloro-4-[(3-fluorobenzyl)oxy]phenyl}amino) [1]benzothieno[2,3-d]pyrimidin-7-yl]ethane-1,2-diol]	≤ 5	≤ 0.5
OCC(O)c1ccc2c(c1)sc1ncnc(Nc3ccc(OCc4ccccn4)c(Cl)c3)c12 (racemic) [Example 73, 1-(4-{[3-chloro-4-(pyridin-2-ylmethoxy)phenyl]amino}[1]benzothieno[2,3-d]pyrimidin-7-yl)ethane-1,2-diol]	≤ 5	≤ 0.5
COCCNCCc1ccc2c(c1)sc1ncnc(Nc3ccc(OCc4cccc(F)c4)c(Cl)c3)c12 [Example 9, N-{3-chloro-4-[(3-fluorobenzyl)oxy]phenyl}-7-{2-[(2-methoxyethyl)amino]ethyl}[1] benzothieno[2,3-d]pyrimidin-4-amine]	≤ 5	≤ 0.5
Fc1cccc(COc2ccc(Nc3ncnc4sc5cc(CCN6CCCC6)ccc5c34)cc2Cl)c1 [Example 11, N-{3-chloro-4-[(3-fluorobenzyl)oxy]phenyl}-7-(2-pyrrolidin-1-ylethyl)[1] benzothieno[2,3-d]pyrimidin-4-amine]	≤ 5	≤ 0.5
Fc1cccc(COc2ccc(Nc3ncnc4sc5cc(Br)ccc5c34)cc2Cl)c1 [Example 13, 7-bromo-N-{3-chloro-4-[(3-fluorobenzyl)oxy]phenyl}[1]benzothieno[2,3-d]pyrimidin-4-amine]	≤ 50	≤ 5
C=Cc1ccc2c(c1)sc1ncnc(Nc3ccc(OCc4cccc(F)c4)c(Cl)c3)c12 [Example 14, N-{3-chloro-4-[(3-fluorobenzyl)oxy]phenyl}-7-vinyl[1]benzothieno[2,3-d]pyrimidin-4-amine]	≤ 50	≤ 0.5
Fc1cccc(COc2ccc(Nc3ncnc4sc5cc(CCN6CCSCC6)ccc5c34)cc2Cl)c1 [Example 15, N-{3-chloro-4-[(3-fluorobenzyl)oxy]phenyl}-7-(2-thiomorpholin-4-ylethyl)[1] benzothieno[2,3-d]pyrimidin-4-amine]	≤ 5	≤ 0.5
Fc1cccc(COc2ccc(Nc3ncnc4sc5cc(CCNCCN6CCOCC6)ccc5c34)cc2Cl)c1 [Example 16, N-{3-chloro-4-[(3-fluorobenzyl)oxy]phenyl}-7-{2-[(2-morpholin-4-ylethyl)amino]ethyl}[1] benzothieno[2,3-d]pyrimidin-4-amine]	≤ 50	≤ 0.5
Fc1cccc(COc2ccc(Nc3ncnc4sc5cc(CCN6CCCCC6)ccc5c34)cc2Cl)c1 [Example 17, N-{3-chloro-4-[(3-fluorobenzyl)oxy]phenyl}-7-(2-piperidin-1-ylethyl)[1] benzothieno[2,3-d]pyrimidin-4-amine]	≤ 5	≤ 0.5
O=S1(=O)CCN(CCc2ccc3c(c2)sc2ncnc(Nc4ccc(OCc5cccc(F)c5)c(Cl)c4)c23)CC1 [Example 18, N-{3-chloro-4-[(3-fluorobenzyl)oxy]phenyl}-7-[2-(1,1-dioxidothiomorpholin-4-yl)ethyl][1]benzothieno[2,3-d] pyrimidin-4-amine]	≤ 50	≤ 0.5
[O-][S+]1CCN(CCc2ccc3c(c2)sc2ncnc(Nc4ccc(OCc5cccc(F)c5)c(Cl)c4)c23)CC1 [Example 19, N-{3-chloro-4-[(3-fluorobenzyl)oxy]phenyl}-7-[2-(1-oxidothiomorpholin-4-yl)ethyl][1] benzothieno[2,3-d]pyrimidin-4-amine]	≤ 50	≤ 5

Now from value to compound:

IC50 [1] [µM]	IC50 [2] [µM]	Compound
≤ 50	≤ 5	CCOC(=O)Cc1ccc2c(c1)sc1ncnc(Nc3ccc(OCc4cccc(F)c4)c(Cl)c3)c12 [Example 1, ethyl[4-({3-chloro-4-[(3-fluorobenzyl)oxy]phenyl}amino)[1]benzothieno[2,3-d]pyrimidin-7-yl]acetate]
≤ 5	≤ 5	OCCc1ccc2c(c1)sc1ncnc(Nc3ccc(OCc4cccc(F)c4)c(Cl)c3)c12 [Example 2, 2-[4-({3-chloro-4-[(3-fluorobenzyl)oxy]phenyl}amino)[1]benzothieno[2,3-d]pyrimidin-7-yl]ethanol]
≤ 5	≤ 0.5	Fc1cccc(COc2ccc(Nc3ncnc4sc5cc(CCBr)ccc5c34)cc2Cl)c1 [Example 3, 7-(2-bromoethyl)-N-{3-chloro-4-[(3-fluorobenzyl)oxy]phenyl}[1]benzothieno[2,3-d]pyrimidin-4-amine]
≤ 50	≤ 0.5	CS(=O)(=O)CCNCCc1ccc2c(c1)sc1ncnc(Nc3ccc(OCc4cccc(F)c4)c(Cl)c3)c12 [Example 4, N-{3-chloro-4-[(3-fluorobenzyl)oxy]phenyl}-7-(2-{[2-(methylsulfonyl)ethyl]amino}ethyl)[1]benzothieno[2,3-d] pyrimidin-4-amine]
≤ 5	≤ 0.5	COC[C@H]1CCCN1CCc1ccc2c(c1)sc1ncnc(Nc3ccc(OCc4cccc(F)c4)c(Cl)c3)c12 [Example 5, N-{3-chloro-4-[(3-fluorobenzyl)oxy]phenyl}-7-{2-[2-(methoxymethyl)pyrrolidin-1-yl]ethyl}[1]benzothieno[2,3-d] pyrimidin-4-amine]
≤ 5	≤ 0.5	COCCN(CCOC)CCc1ccc2c(c1)sc1ncnc(Nc3ccc(OCc4cccc(F)c4)c(Cl)c3)c12 [Example 6, 7-{2-[bis(2-methoxyethyl)amino]ethyl}-N-{3-chloro-4-[(3-fluorobenzyl)oxy]phenyl}[1] benzothieno[2,3-d]pyrimidin-4-amine]
≤ 50	≤ 5	Fc1cccc(COc2ccc(Nc3ncnc4sc5cc(CCn6ccnc6)ccc5c34)cc2Cl)c1 [Example 7, [3-chloro-4-(3-fluoro-benzyloxy)-phenyl]-[7-(2-imidazol-1-yl-ethyl)-benzo[4,5]thieno[2,3-d]pyrimidin-4-yl]-amine]
≤ 5	≤ 0.5	OCCN(CCO)CCc1ccc2c(c1)sc1ncnc(Nc3ccc(OCc4cccc(F)c4)c(Cl)c3)c12 [Example 8, 2,2'-({2-[4-({3-chloro-4-[(3-fluorobenzyl)oxy]phenyl}amino)[1]benzothieno[2,3-d]pyrimidin-7-yl]ethyl}imino)diethanol]
≤ 50	≤ 0.5	Fc1cccc(COc2ccc(Nc3ncnc4sc5cc(CCN6CCOCC6)ccc5c34)cc2Cl)c1 [Example 10, N-{3-chloro-4-[(3-fluorobenzyl)oxy]phenyl}-7-(2-morpholin-4-ylethyl)[1] benzothieno[2,3-d]pyrimidin-4-amine]
≤ 5	≤ 0.5	COCCN1CCN(CCc2ccc3c(c2)sc2ncnc(Nc4ccc(OCc5cccc(F)c5)c(Cl)c4)c23)CC1 [Example 12, N-{3-chloro-4-[(3-fluorobenzyl)oxy]phenyl}-7-{2-[4-(2-methoxyethyl)piperazin-1-yl]ethyl}[1]benzothieno [2,3-d]pyrimidin-4-amine]
≤ 5	–	OC[C@@H](O)COc1ccc2c(c1)sc1ncnc(Nc3ccc(OCc4cccc(F)c4)c(Cl)c3)c12 [Example 35, (2R)-3-{[4-({3-chloro-4-[(3-fluorobenzyl)oxy]phenyl}amino)[1]benzothieno[2,3-d]pyrimidin-7-yl]oxy}propane-1,2-diol]
≤ 50	–	CS(=O)(=O)CCNC(=O)/C=C/c1ccc2c(c1)sc1ncnc(Nc3ccc(OCc4cccc(F)c4)c(Cl)c3)c12 [Example 53, (2E)-3-[4-({3-chloro-4-[(3-fluorobenzyl)oxy]phenyl}amino) [1]benzothieno[2,3-d]pyrimidin-7-yl]-N-[2-(methylsulfonyl)ethyl]acrylamide]
≤ 5	–	O=C(/C=C/c1ccc2c(c1)sc1ncnc(Nc3ccc(OCc4cccc(F)c4)c(Cl)c3)c12)N1CCOCC1 [Example 55, N-{3-chloro-4-[(3-fluorobenzyl)oxy]phenyl}-7-[(1E)-3-morpholin-4-yl-3-oxoprop-1-en-1-yl][1]benzothieno[2,3-d] pyrimidin-4-amine trifluoroacetate]
–	≤ 0.5	CN1CCN(CCc2ccc3c(c2)sc2ncnc(Nc4ccc(OCc5ccccn5)c(Cl)c4)c23)CC1 [Example 91]
–	≤ 0.5	OC[C@@H](O)COc1ccc2c(c1)sc1ncnc(Nc3ccc(OCc4cccc(F)c4)c(Cl)c3)c12 [Example 147, ((2R)-3-{[4-({3-chloro-4-[(3-fluorobenzyl)oxy]phenyl}amino)[1]benzothieno[2,3-d]pyrimidin-7-yl]oxy}propane-1,2-diol hydrochloride]
